Data as given in PubChem BioAssay AID256 (DTP/NCI, 2004).
Inconclusive results and toxic doses are left out.

Test system: CD2F1 mice, L1210 leukemia ip, survival T/C
Experiment: NCI In Vivo Anticancer Drug Screen. Data for tumor model L1210 Leukemia (intraperitoneal) in CD2F1 (CDF1) mice
Settings: higher = longer survival
In short: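 Each value reflects a quotient of treated over vehicle control outcomes in mice with a transplanted tumor.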

[1] = endpoint: mean survival time, dose: 50.0 mg/kg/injection, schedule: Q01DX009 (ip), vehicle: saline with Tween-80
[2] = endpoint: mean survival time, dose: 100.0 mg/kg/injection, schedule: Q01DX009 (ip), vehicle: saline with Tween-80
[3] = endpoint: mean survival time, dose: 100.0 mg/kg/injection, schedule: Q04DX003 (ip), vehicle: saline with Tween-80
[4] = endpoint: mean survival time, dose: 200.0 mg/kg/injection, schedule: Q04DX003 (ip), vehicle: saline with Tween-80
[5] = endpoint: mean survival time, dose: 200.0 mg/kg/injection, schedule: Q01DX009 (ip), vehicle: saline with Tween-80
[6] = endpoint: mean survival time, dose: 12.5 mg/kg/injection, schedule: Q01DX009 (ip), vehicle: saline with Tween-80
[7] = endpoint: mean survival time, dose: 25.0 mg/kg/injection, schedule: Q01DX009 (ip), vehicle: saline with Tween-80
[8] = endpoint: mean survival time, dose: 400.0 mg/kg/injection, schedule: Q04DX003 (ip), vehicle: saline with Tween-80

With `c1ccc(Cn2cc(CCc3ccncc3)c3ccccc32)cc1` the T/C [1] was 88 % of control, the T/C [2] was 93 % of control and the T/C [3] was 91 % of control. The T/C [4] was 92 % of control.

With `O=[N+]([O-])c1ccc(Nc2cccc(Cl)c2)c([N+](=O)[O-])c1` the T/C [4] was 87 % of control.

`NC(=O)NO` was tested, and the T/C (endpoint: mean survival time, dose: 4.0 mg/kg/injection, schedule: Q03HX024 (ip), vehicle: saline) was 95 % of control, the T/C (endpoint: mean survival time, dose: 8.0 mg/kg/injection, schedule: Q03HX024 (ip), vehicle: saline) was 97 % of control and the T/C (endpoint: mean survival time, dose: 62.0 mg/kg/injection, schedule: Q03HX024 (ip), vehicle: saline) was 90 % of control. For the same compound, the T/C (endpoint: mean survival time, dose: 100.0 mg/kg/injection, schedule: Q03DX003 (ip), vehicle: saline) was 110 % of control, the T/C (endpoint: mean survival time, dose: 200.0 mg/kg/injection, schedule: Q04DX003 (ip), vehicle: saline) was 100 % of control and the T/C (endpoint: median survival time, dose: 25.0 mg/kg/injection, schedule: Q03HX024 (ip), vehicle: saline) was 120 % of control. The T/C (endpoint: median survival time, dose: 100.0 mg/kg/injection, schedule: Q06HX016 (ip), vehicle: saline) was 99 % of control and the T/C (endpoint: median survival time, dose: 200.0 mg/kg/injection, schedule: Q06HX016 (ip), vehicle: saline) was 99 % of control.

In the case of `C=C(Cl)CN(CCCC(=O)O)c1ccccc1`, the T/C (endpoint: mean survival time, dose: 25.0 mg/kg/injection, schedule: Q01DX009 (ip), vehicle: other) is reported as 95 % of control, the T/C (endpoint: mean survival time, dose: 50.0 mg/kg/injection, schedule: Q01DX009 (ip), vehicle: other) is reported as 89 % of control and the T/C (endpoint: mean survival time, dose: 100.0 mg/kg/injection, schedule: Q01DX009 (ip), vehicle: other) is reported as 97 % of control.

`CCC[CH2][Sn]([CH2]C)([CH2]C)[O]C(C)=O` was tested, and the T/C (endpoint: mean survival time, dose: 2.5 mg/kg/injection, schedule: Q01DX009 (ip), vehicle: saline with Tween-80) was 104 % of control and the T/C (endpoint: mean survival time, dose: 5.0 mg/kg/injection, schedule: Q01DX009 (ip), vehicle: saline with Tween-80) was 102 % of control.

`c1ccc2c(P(c3cccc4ccccc34)c3cccc4ccccc34)cccc2c1` was tested, and the T/C (endpoint: mean survival time, dose: 100.0 mg/kg/injection, schedule: Q01DX001 (ip), vehicle: saline) was 100 % of control, the T/C (endpoint: mean survival time, dose: 200.0 mg/kg/injection, schedule: Q01DX001 (ip), vehicle: saline) was 93 % of control and the T/C (endpoint: mean survival time, dose: 400.0 mg/kg/injection, schedule: Q01DX001 (ip), vehicle: saline) was 89 % of control.

`Cc1ccc(NC(=O)Nc2ccc(S(N)(=O)=O)cc2)cc1C` was tested, and the T/C [1] was 96 % of control, the T/C [2] was 87 % of control and the T/C [5] was 87 % of control.

For `Cc1cccc(C(=O)C=C(C(F)(F)F)C(F)(F)F)c1`, the T/C [6] was 103 % of control and the T/C [7] was 113 % of control.

`CS(=O)(=O)Nc1ccc(Nc2c3ccccc3nc3cc(N)ccc23)cc1` was tested, and the T/C (endpoint: mean survival time, dose: 1.5 mg/kg/injection, schedule: Q01DX001 (ip), vehicle: saline) was 160 % of control, the T/C (endpoint: mean survival time, dose: 3.0 mg/kg/injection, schedule: Q01DX001 (ip), vehicle: saline) was 162 % of control and the T/C (endpoint: mean survival time, dose: 3.0 mg/kg/injection, schedule: Q01DX009 (ip), vehicle: saline) was 152 % of control. The T/C (endpoint: mean survival time, dose: 5.0 mg/kg/injection, schedule: Q01DX009 (ip), vehicle: saline) was 114 % of control and the T/C (endpoint: mean survival time, dose: 12.0 mg/kg/injection, schedule: Q01DX001 (ip), vehicle: saline) was 175 % of control.

In the case of `NC(=S)N/N=C/c1c(O)ccc2ccccc12`, the T/C (endpoint: mean survival time, dose: 12.5 mg/kg/injection, schedule: Q04DX003 (ip), vehicle: saline with Tween-80) is reported as 98 % of control, the T/C (endpoint: mean survival time, dose: 25.0 mg/kg/injection, schedule: Q04DX003 (ip), vehicle: saline with Tween-80) is reported as 95 % of control and the T/C (endpoint: mean survival time, dose: 50.0 mg/kg/injection, schedule: Q04DX003 (ip), vehicle: saline with Tween-80) is reported as 95 % of control.

In the case of `CS(=O)(=O)OCCN(CCOS(C)(=O)=O)c1ccc(N=O)c(Cl)c1`, the T/C [3] is reported as 124 % of control.

With `c1ccc2c(c1)c1ccccc1c1nc3c(nc21)CCCC3` the T/C [3] was 102 % of control, the T/C [4] was 96 % of control and the T/C [8] was 96 % of control.

For `O=Cc1cc(Cl)cc(Cl)c1O`, the T/C [3] was 96 % of control and the T/C [4] was 98 % of control.

In the case of `Nc1ccc2cc(O)ccc2c1`, the T/C [6] is reported as 91 % of control, the T/C [7] is reported as 98 % of control and the T/C [1] is reported as 95 % of control.

In the case of `O=C(Nc1ccc(Br)cn1)Nc1cccc(Cl)c1Cl`, the T/C [1] is reported as 94 % of control, the T/C [2] is reported as 101 % of control and the T/C [5] is reported as 105 % of control.

In the case of `CC(=O)Oc1ccc(C2NNC3(O)C(=O)N(C4CCCCC4)CC23)cc1` (centres undefined), the T/C [3] is reported as 90 % of control, the T/C [4] is reported as 94 % of control and the T/C [8] is reported as 98 % of control.
